The test system of one data set is HIV-1 strain NL4.3. The data set can be described thus: Anti-HIV-1 assay in MT-4 cells (p24 Ag ELISA, Example 3). The class given is cell-based. As to the method: Antiviral Assays. For HIV-1, MT-4 cells were infected with the HIV-1 strain NL4.3. Briefly, five-fold dilutions of the compounds (in 100 μl) were added to 96-well flat bottom plates (Iwaki, Japan). Then, to each well, 7.5×10^4 MT-4 cells were added in 50 μl medium, followed by 50 μl of diluted HIV-1 stock (strain NL4.3). Cytopathic effect (CPE) induced by the virus was checked regularly microscopically. When strong CPE was observed (after 3 to 5 days of incubation) in untreated HIV-1 infected cells, the supernatant was collected, stored at −20° C. and analyzed for HIV-1 core antigen by p24 Ag ELISA (NEN™, PerkinElmer Life Sciences, Boston, Mass.). Finally, the IC50 value of the compounds (i.e., the concentration of the compound required for 50% reduction of HIV infection as measured by viral p24 antigen level in the supernatant of infected MT-4 cells) was calculated.
In general terms: In an ELISA, binding on a coated surface is turned into a signal by an enzyme label.

The test system of another data set is HHV-7 (KHR strain). In words: Anti-HHV-7 assay in SupT1 cells (antigen expression, flow cytometry, Example 3). In kind it is cell-based. The note with it: SUP-T1; SupT1 cells; read-out: IC50 HHV-7 (50% reduction of HHV-7 antigen expression). As to the method: For HHV-7, five-fold dilutions of the compounds were added in 500 μl culture medium in 24-well flat bottom plates (Iwaki, Japan), whereupon 2×10^5 SupT1 cells were added in 400 μl culture medium. After 30 min incubation at room temperature, 100 μl of HHV-7 stock was added to each well. HHV-7-infected and mock-infected SupT1 cells were cultured in a final volume of 1 ml medium in the absence of the compounds. On day 4, half of the medium and the cells were replaced and fresh medium without new compound was added. This procedure was repeated every 2 or 3 days. The CPE was checked regularly microscopically. When CPE was observed, the HHV-7 antigen expression was monitored by flow cytometry, as described previously (Zhang, Y. et al. (1999) “Selective activity of various antiviral compounds against HHV-7 infection Antiviral Res. 43, 23-35.)

The target of data set [1] is T1, CD4 (Homo sapiens, UniProt P01730). The data set can be described thus: CD4 down-modulation, flow cytometry with FITC-conjugated anti-CD4 (SK3) mAb, SupT1 cells. The class given is cell-based. Details: To study the effect of the CADA derivatives on surface CD4 antigen expression, MT-4 and SupT1 cells were incubated; endogenous in cells; host or cells: MT-4, SupT1, PBMC. As to conditions: day 4, read-out: IC50 CD4 (50% inhibition of extracellular CD4 expression) (converted). How it is done: (§1) Flow Cytometric Analyses. To study the effect of the CADA derivatives on surface CD4 antigen expression, MT-4 and SupT1 cells were incubated with a serial 5-fold dilution of the compounds (50, 10, 2, 0.4 and 0.08 μg/ml) or medium at 37° C. Cell surface CD4 antigen expression was analyzed at day 3 (MT-4) or day 4 (SupT1). Briefly, after washing with phosphate-buffered saline (PBS) containing 2% fetal calf serum (FCS), cells were incubated with FITC-conjugated anti-CD4 (SK3) mAb for 30 min at 4° C. As a negative control for a specific background staining, cells were stained in parallel with Simultest Control γ1/γ^2a (Becton Dickinson). Then the cells were washed, fixed with 1% formaldehyde and analyzed by flow cytometry in a FACScalibur (Becton Dickinson, San Jose, Calif., USA). Data were acquired and analyzed with CellQuest software (Becton Dickinson). For the calculation of the CD4 receptor expression, the mean fluorescence intensity (MFI) of each sample was expressed as percentage of the MFI of control cells (after subtracting the MFI of the isotype control). Finally, the IC50 value of the compounds (i.e., the concentration of the compound required for 50% inhibition of extracellular CD4 expression) was calculated.
(Flow cytometry measures light scatter and fluorescence of single cells or particles in a stream.)

Data set [2] is described as follows: Cytotoxicity assay (trypan blue exclusion, propidium iodide). The class given is cell-based, human. The note with it: human. How it is done:
Cytotoxicity Assay. Cellular toxicity of the compounds was measured by trypan blue exclusion and also by Propidium Iodide by flow cytometry after 3 or 4 days of incubation, in parallel with the CD4 antigen expression. The CC50 value of each CADA analog is the concentration (in μg/ml) required to reduce the viability of the cells by 50%.

Data set [3] deals with T1, CD4. In words: CD4 down-modulation, flow cytometry with FITC-conjugated anti-CD4 (SK3) mAb, MT-4 cells. In kind it is cell-based. On the set-up: To study the effect of the CADA derivatives on surface CD4 antigen expression, MT-4 and SupT1 cells were incubated; endogenous in cells; host or cells: MT-4, SupT1, PBMC. The note with it: for IC50: MT-4 cells, day 3, read-out: IC50 CD4 (50% inhibition of extracellular CD4 expression) (converted); for CD4 down-modulating activity compared with CADA or parent analog (in words): structure-activity discussion of Table 5 (MT-4 and SupT1 cells); for CD4 down-modulating activity, fold less active than CADA: compared to CADA, MT-4 cells (stated for some compounds). How it is done:
as §1, with “Cell surface CD4 antigen expression was analyzed at day 3 (MT-4) or day 4 (SupT1).” left out

The target of data set [4] is T1, CD4. In words: Cell surface CD4 expression by flow cytometry (anti-CD4 mAb Leu3a-PE). The class given is cell-based. On the set-up: To study the effect of the CADA derivatives on surface CD4 antigen expression, MT-4 and SupT1 cells were incubated; endogenous in cells; host or cells: MT-4, SupT1, PBMC. The note with it: staurosporine together with CADA. As to the method:
FIGS. 2A-2C. Surface CD4 expression in MT-4 cell line, SupT1 cell line and PBMCs after incubation with CADA hydrochloride (3.2 or 16 μM) for 1 and 4 days. (A) Cell surface CD4 expression of control MT-4 cells and MT-4 cells treated with CADA (3.2 μM) for 1 day or 4 days. (B) Cell surface CD4 expression of control SupT1 cells and SupT1 cells treated with CADA (3.2 μM) for 1 day or 4 days. (C) Cell surface CD4 expression of control PBMCs and PBMCs treated with CADA (16 μM) for 1 day or 4 days. The cells were stained with anti-CD4 mAb (Leu3a-PE). Percentages of fluorescent cells and MFI (mean fluorescence intensity) are indicated in each histogram.
FIG. 4. Comparison of the effects on CD4 modulation by ATA (24 μM), CADA hydrochloride (16 μM) and PMA (8 nM) in SupT1 cells after incubation with the compounds analyzed after 20 minutes, 4 hours, 1 day and 4 days.
Cells were incubated with CADA hydrochloride and the CD4 expression on the cell surface was analyzed. […] In peripheral blood mononuclear cells (PBMCs), the percentage of CD4 expression decreased to 0.2% after incubation with CADA (16 μM) for 4 days (FIG. 2).
Expression of various other surface antigens was also examined in MT-4 cells, SupT1 cells and PBMCs after incubation with CADA (16 μM) or CADA-free medium at 37° C. for 4 days. After washing with phosphate-buffered saline (PBS) containing 2% FCS(fetal calf serum), the cells were incubated with mAb (as indicated in Table 1) for 20 min at 4° C. Then the cells were washed, fixed with 1% formaldehyde and analyzed by flow cytometry. All mAbs were purchased from Becton-Dickinson (Erembodegem, Belgium).
CADA was compared with ATA and PMA with regard to their down-modulating effects. […] At day 4, the CD4 expression in SupT1 cells treated with CADA reduced to 1.2%.

Where [5] appears, read: Human immunodeficiency virus 1, MT4, MT-4 cells, read-out: IC50 HIV-1 (NL4.3), p24 Ag ELISA.
[6] abbreviates: MT-4 cells, read-out: CC50 (50% cytotoxic concentration).
Where [7] appears, read: SupT1 cells, read-out: CC50 (50% cytotoxic concentration).
Where [8] appears, read: Human immunodeficiency virus 1, MT4 cells, Table 6, unit inferred, read-out: IC50(HIV-1).
Setting [9] is: MT-4 cells, MT4 cells, Table 6, unit inferred, read-out: CC50.
The mark [10] stands for this setting: SupT1 cells, Table 6, unit inferred, read-out: CC50.

Data on 10 molecules can be found in patent US20040220164A1, “Triaza compound immunoregulatory agents” (priority 2001, published 2004).

≈ marks a conversion by molar mass, not a printed value. Read-outs that look alike come from different tables or passages of the source.

As a reminder, the IC50 is the concentration needed to halve the response being measured. Turning to `C=C1CN(S(=O)(=O)c2ccc(C)cc2)CCCN(S(=O)(=O)c2ccc(C)cc2)CCCN(S(=O)(=O)c2ccc(C)cc2)C1` [AS112], the IC50 is above 10 µg/mL in the data set on HIV-1 strain NL4.3 (setting [5]), above 50 µg/mL in the data set with HHV-7 (KHR strain), above 77.4 µM on CD4 [1] and above 15.5 µM at CD4 [3]. Further, the CC50 is 27.8 µg/mL (≈ 43 µM) in data set [2] (setting [6]) and above 50 µg/mL in data set [2] (setting [7]). In addition, the “CD4 down-modulating activity compared with CADA or parent analog (in words)” value on CD4 [3] is on record as “negative effect”.
On to `Cc1ccc(S(=O)(=O)N2CCCN(Cc3ccccc3)CCCN(S(=O)(=O)c3ccc(C)cc3)CC(CCl)C2)cc1` [AS117], for which the IC50 with HIV-1 strain NL4.3 (setting [5]) is 1.15 µg/mL (≈ 1.86 µM); with HHV-7 (KHR strain) it was 0.78 µg/mL (≈ 1.26 µM); at CD4 [1], 2.41 µM; at CD4 [3], 1.81 µM. Besides, the CC50 in data set [2] (setting [6]) was 30.7 µg/mL (≈ 49.7 µM); in data set [2] (setting [7]), above 50 µg/mL. Besides, at CD4 [3], the “CD4 down-modulating activity, fold less active than CADA” value was determined as 3 fold.
In the case of `C=C1CN(S(=O)(=O)c2ccc(Br)cc2)CCCN(Cc2ccccc2)CCCN(S(=O)(=O)c2ccc(Br)cc2)C1` [AS-PB127], the half-inhibitory concentration (IC50) in the data set on HIV-1 strain NL4.3 (setting [5]) is 1.4 µg/mL (≈ 1.97 µM); in the data set with HHV-7 (KHR strain), 0.88 µg/mL (≈ 1.24 µM); at CD4 [1] it was 2.49 µM; on CD4 [3], 1.98 µM. Further, the CC50 in data set [2] (setting [6]) is 35.7 µg/mL (≈ 50.2 µM); in data set [2] (setting [7]), above 50 µg/mL. Further, the “CD4 down-modulating activity, fold less active than CADA” value at CD4 [3] came out at 4 fold.
For `C=C1CN(S(=O)(=O)c2ccc(C)cc2)CCCN(C(=O)OCC)CCCN(S(=O)(=O)c2ccc(C)cc2)C1` [Compound 95-213], the concentration for half-maximal inhibition (IC50) in the data set on HIV-1 strain NL4.3 (setting [5]) is 8.05 µg/mL (≈ 14.3 µM); with HHV-7 (KHR strain), 0.68 µg/mL (≈ 1.21 µM); on CD4 [1], 17.1 µM; at CD4 [3] it was 11.5 µM. For the same molecule, the CC50 in data set [2] (setting [6]) and in data set [2] (setting [7]) was above 50 µg/mL each time.
For `C=C1CN(S(=O)(=O)c2ccc(C)cc2)CCCN(CC(C)C)CCCN(S(=O)(=O)c2ccc(C)cc2)C1` [Compound 98-035], the concentration for half-maximal inhibition (IC50) in the data set with HIV-1 strain NL4.3 (setting [5]) is 4.82 µg/mL (≈ 8.8 µM); in the data set on HHV-7 (KHR strain) it was 0.7 µg/mL (≈ 1.28 µM); at CD4 [1] it was 9.73 µM; at CD4 [3], 8.78 µM. The CC50 in data set [2] (setting [6]) and in data set [2] (setting [7]) was above 50 µg/mL in each case. The “CD4 down-regulating activity, fold less active than QJ036” value on CD4 [3] (compared to QJ036) is 4 fold.
As to `C=C1CN(S(=O)(=O)c2ccc(C)cc2)CCCN(Cc2ccccn2)CCCN(S(=O)(=O)c2ccc(C)cc2)C1` [Compound 98-037], the IC50 was above 50 µg/mL in the data set with HIV-1 strain NL4.3 (setting [5]), above 50 µg/mL with HHV-7 (KHR strain), above 85.8 µM on CD4 [1] and above 85.8 µM at CD4 [3]. The CC50 in data set [2] (setting [6]) and in data set [2] (setting [7]) was above 50 µg/mL each time. Further, the “CD4 down-modulating activity compared with CADA or parent analog (in words)” value at CD4 [3] is recorded as “complete loss of activity”.
For `Cc1ccc(S(=O)(=O)N2CCCN(S(=O)(=O)c3ccc(C)cc3)CC(C)(O)CN(S(=O)(=O)c3ccc(C)cc3)CCC2)cc1` [HJC241], the IC50 in the data set on HIV-1 strain NL4.3 (setting [5]) is above 10 µg/mL; with HHV-7 (KHR strain) it was 1.09 µg/mL (≈ 1.64 µM); on CD4 [1], above 75.3 µM; on CD4 [3], 2.86 µM. Moreover, the results for the CC50 in data set [2] (setting [6]) and in data set [2] (setting [7]) were 32 µg/mL (≈ 48.2 µM) and above 50 µg/mL, respectively.
As for `C=C1CN(S(=O)(=O)c2ccc(C)cc2)CCCN(Cc2ccccc2)CCCN(S(=O)(=O)c2cccc3c(N(C)C)cccc23)C1` [KKD015, 9-Benzyl-3-methylene-1-(5-dimethylamino-1-naphthalenesulfonyl)-5-p-toluenesulfonyl-1,5,9-triazacyclododecane], the IC50 in the data set on HIV-1 strain NL4.3 (setting [8]) amounted to 6.7 µg/mL (≈ 10.1 µM). For the same molecule, the CC50 in data set [2] (setting [9]) and in data set [2] (setting [10]) was above 100 µg/mL each time.
Turning to `C=C1CN(S(=O)(=O)c2ccc(C)cc2)CCCN(CC2CCCCC2)CCCN(S(=O)(=O)c2cccc3c(N(C)C)cccc23)C1` [KKD016, 9-methylcyclohexane-3-methylene-1-(5-dimethylamino-1-naphthalenesulfonyl)-5-p-toluenesulfonyl-1,5,9-triazacyclododecane], in the data set on HIV-1 strain NL4.3 (setting [8]), the half-maximal inhibitory concentration (IC50) was 1.15 µg/mL (≈ 1.72 µM). Moreover, the CC50 is 61.2 µg/mL (≈ 91.8 µM) in data set [2] (setting [9]) and 27.4 µg/mL (≈ 41.1 µM) in data set [2] (setting [10]).
Turning to `CN[C@@H]1C[C@H]2O[C@@](C)([C@@H]1OC)n1c3ccccc3c3c4c(c5c6ccccc6n2c5c31)C(=O)NC4` [staurosporine, reference compound], at CD4 [4], the “effect of PKC blocker on the down-modulation of CD4 with CADA” value is on record as “did not show any effect”.
